Experimental data from patent publication US8658599B2, “Peptide for the prophylactic or therapeutic treatment of skin tumors in initial stages” (Digna Biotech, S.L., priority 2009, dated 2014).
Where no end group is shown, it is not given here.

Tests used:
TGF-β1 = biological target: T1, TGF-β1 (Homo sapiens, UniProt P01137); settings: shown previously, WO 00/31135; cited from earlier work
T1 construct: host or cells: My-1-Lu cell line (so in the source)

normal skin = test system: normal skin; set-up: species or system mice; settings: mouse, in vivo
Protocol: In order to test the possible tumor-promoting effect of disitertide, TPA was replaced by a treatment with a topical formulation cream containing disitertide (group 2, consisting of 5 animals) or with vehicle only (group 1, consisting of 5 mice) during the promotion phase of chemical carcinogenesis. Similarly, the possible carcinogenic activity of disitertide was analyzed in a group of 5 mice by repeated applications of disitertide every 2 days for 23 weeks. Since papillomas appear at around 7-8 weeks post-initiation, mice initiated with DMBA and promoted with TPA were further treated with disitertide every 2 days for 4 and 12 weeks (groups 5 and 6, respectively, 10 animals each), in order to test whether disitertide could prevent skin carcinogenesis. Treatment with disitertide started in the same week in which mice were initiated with DMBA (week 0), and applications with this and TPA were performed on alternate days. As a control, a group of mice (group 4, consisting of 5 animals) were treated with vehicle only (control cream) for 12 weeks. Finally, a group of animals with tumors (group 7, consisting of 10 animals) were treated with disitertide every 2 days for 20 weeks from week 12 to week 32 after initiation with DMBA. This group of mice was included in order to test a possible anti-tumor effect of the peptide. […]

[1] = test system: skin tumors in mice initiated with DMBA; test: Tumor-promoting effect: TPA replaced by disitertide cream in DMBA-initiated mice; format: in vivo, Swiss albino mice; settings: group 2
Protocol: The tumors were induced on the shaved dorsal skin of mice aged 6-8 weeks through a single topical application of DMBA (32 μg in 200 μl of acetone), followed by treatment twice a week with 12.5 μg of TPA in 200 μl of acetone (10^−4 M) for 12 weeks. In addition, groups of mice were treated with a topical formulation in the form of cream that contained disitertide or not, as specified below. Each week the number of tumors bigger than 2 mm in diameter were recorded in each mouse. At the end of the experiment, the animals were anesthetized and killed (32 weeks after the initiation with DMBA), and the tumors were fixed in 10% formaldehyde and embedded in paraffin for the histological studies.
In order to test the possible tumor-promoting effect of disitertide, TPA was replaced by a treatment with a topical formulation cream containing disitertide (group 2, consisting of 5 animals) or with vehicle only (group 1, consisting of 5 mice) during the promotion phase of chemical carcinogenesis. Similarly, the possible carcinogenic activity of disitertide was analyzed in a group of 5 mice by repeated applications of disitertide every 2 days for 23 weeks. Since papillomas appear at around 7-8 weeks post-initiation, mice initiated with DMBA and promoted with TPA were further treated with disitertide every 2 days for 4 and 12 weeks (groups 5 and 6, respectively, 10 animals each), in order to test whether disitertide could prevent skin carcinogenesis. Treatment with disitertide started in the same week in which mice were initiated with DMBA (week 0), and applications with this and TPA were performed on alternate days. As a control, a group of mice (group 4, consisting of 5 animals) were treated with vehicle only (control cream) for 12 weeks. Finally, a group of animals with tumors (group 7, consisting of 10 animals) were treated with disitertide every 2 days for 20 weeks from week 12 to week 32 after initiation with DMBA. This group of mice was included in order to test a possible anti-tumor effect of the peptide. Disitertide was applied at a dose of 60 μg in 200 μl of the topical formulation as cream, except for mice of group 7 in which the dose of disitertide was increased up to 120 μg (in 400 μl of cream).

T1 sequence (P01137 279-390 limits assumed, species assumed): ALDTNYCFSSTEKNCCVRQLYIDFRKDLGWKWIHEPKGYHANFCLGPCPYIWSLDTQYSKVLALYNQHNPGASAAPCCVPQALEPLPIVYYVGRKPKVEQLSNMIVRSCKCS

Effect on normal skin after repeated applications (normal skin) | Mean number of tumors per mouse at week 10 post-initiation ([1]; DMBA initiation, disitertide cream as promoter instead of TPA, 12 weeks, tumors >2 mm, week 10) | Mean number of tumors per mouse at week 14 post-initiation ([1]; DMBA initiation, disitertide cream as promoter instead of TPA, 12 weeks, tumors >2 mm, week 14) | Mean number of tumors per mouse at week 25 post-initiation ([1]; DMBA initiation, disitertide cream as promoter instead of TPA, 12 weeks, tumors >2 mm, week 25) | Mean number of tumors per mouse at week 32 post-initiation ([1]; DMBA initiation, disitertide cream as promoter instead of TPA, 12 weeks, tumors >2 mm, week 32) | Tumor induction when disitertide replaces TPA as promoter ([1]; DMBA-initiated mice promoted with disitertide cream for 12 weeks) | Substance | Capacity to act as TGF-β1 inhibitor (TGF-β1)
– | – | – | – | – | – | P54: mammal homologue peptide of disitertide, SEQ ID NO: 2, amino acids 731-742 of rat type III receptor of TGF-β1 (TSLDATMIWTMM; P54 peptide) | act as TGF-β1 inhibitors
no deleterious effect on normal skin | 0.0 | 0.0 | 0.0 | 0.0 | no tumors were induced | TSLDASIIWAMMQN [disitertide] | –
